Measurements from patent US20260098072A1, “METHODS OF STIMULATING APPETITE AND/OR INCREASING BODY WEIGHT USING NON-NATURALLY OCCURRING MELANOCORTIN RECEPTOR ANTAGONIST ANALOGS” (Endevica Bio, Inc., priority 2022, published 2026).
Values joined by “and” are separate entries in the source; they are usually repeats but may differ in a detail not shown here. Equal values may be shown once. Where a name gives a salt, the structure may show the parent alone. Positions of bridges follow the written chain, without caps; N, C: chain ends. Non-standard residues stand in square brackets, D forms with d. Residues, ends and D or L forms follow the SMILES beside them. d2Nal = N[C@H](Cc1ccc2ccccc2c1)C(=O)O; Hyp = O=C(O)[C@@H]1C[C@@H](O)CN1; Nle = CCCC[C@H](N)C(=O)O

How the values were obtained:
human MC3R = target: T1, human MC3R (Homo sapiens, UniProt P41968); test: cAMP accumulation assay (HTRF), antagonist activity at MC3R; type: cell-based; conditions: for Emax / IC50: HEK293/CRE-luc/MC3R; for Emax: 0.1 nM to 1,000 nM, read-out: Max Activation %; for Hill Coefficient / Top (%): dose-response fit, MC3R; for IC50: estimated from dose-response curve
T1 construct: expressed in transfected cells; host or cells: HEK293/CRE-luc/MC3R
Protocol: (§1) The antagonist activity of exemplary non-naturally occurring melanocortin analogs (SEQ ID NOs: 3, 4, 6, 9-11, 14, 15, and 291-309) at the melanocortin 3 receptor (MC3R) and melanocortin 4 (MC4R) receptor was measured via cAMP accumulation assay, according to the following procedure.
(§2) Recombinant cell lines shown in Table 1 were stimulated with melanocortin receptor antagonists and evaluated for cyclic adenosine monophosphate (cAMP) levels as a measurement of receptor activation. cAMP levels were quantified using Homogeneous Time-Resolved Fluorescence (HTRF). The stimulation and CAMP measurement were performed sequentially. First, the compound stimulated the G-protein coupled receptor (GPCR) which then induced downstream signaling, which was measured soon after. Cell lines and stimulated receptors used are detailed in Table 1.
(§3) Twenty-seven exemplary synthetic peptides were tested for antagonist activity at the human MC3R and MC4R at concentrations ranging from 0.1 nM to 1,000 nM. After stimulation, the level of cyclic adenosine monophosphate (CAMP) in each well was quantified via Homogenous Time-Resolved Fluorescence (HTRF) as a measurement of receptor activity. Dose-response curves and estimated IC50 values were then obtained for each antagonist peptide against the MC3R and MC4R. HS024 (TFA) and was used as a positive control for the antagonist activity of MC3R (FIG. 1A) and MC4R (FIG. 1B).

human MC4R = target: T2, human MC4R (Homo sapiens, UniProt P32245); test: cAMP accumulation assay (HTRF), antagonist activity at MC4R; type: cell-based; conditions: for Emax: HEK293, HEK293/MC4R/CRE-GFP, 0.1 nM to 1,000 nM, read-out: Max Activation %; for Hill Coefficient / Top (%): dose-response fit, MC4R; for IC50: HEK293/MC4R/CRE-GFP, estimated from dose-response curve
T2 construct: expressed in transfected cells; host or cells: HEK293/MC4R/CRE-GFP
Protocol: as §1, §2, §3

T1 sequence (P41968 whole entry): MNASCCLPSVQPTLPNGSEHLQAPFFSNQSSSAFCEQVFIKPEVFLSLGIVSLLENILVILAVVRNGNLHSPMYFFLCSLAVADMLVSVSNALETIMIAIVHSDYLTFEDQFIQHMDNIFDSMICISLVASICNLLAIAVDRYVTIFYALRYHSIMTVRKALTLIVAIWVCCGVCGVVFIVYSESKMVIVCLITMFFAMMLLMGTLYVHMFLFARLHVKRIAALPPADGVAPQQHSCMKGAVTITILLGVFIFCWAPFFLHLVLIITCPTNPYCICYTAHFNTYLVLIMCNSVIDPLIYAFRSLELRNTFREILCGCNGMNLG
T2 sequence (P32245 whole entry): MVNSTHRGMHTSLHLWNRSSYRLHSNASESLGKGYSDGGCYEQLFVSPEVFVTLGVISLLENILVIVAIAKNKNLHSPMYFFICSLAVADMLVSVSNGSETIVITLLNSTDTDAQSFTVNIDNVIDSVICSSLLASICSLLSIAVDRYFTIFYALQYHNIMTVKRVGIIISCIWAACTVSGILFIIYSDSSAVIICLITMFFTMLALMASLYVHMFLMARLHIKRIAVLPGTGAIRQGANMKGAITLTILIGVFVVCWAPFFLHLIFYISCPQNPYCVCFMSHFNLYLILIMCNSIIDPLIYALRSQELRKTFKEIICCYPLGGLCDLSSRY

Emax (human MC3R) [%] | Hill Coefficient (human MC3R) | Top (%) (human MC3R) | Emax (human MC4R) [%] | Hill Coefficient (human MC4R) | Top (%) (human MC4R) | IC50 (human MC3R) | IC50 (human MC4R) | Molecule
74.5 | 0.73 | 4952.72 | 49.4 | 0.55 | 2739.03% | < 10 µM | > 10 µM | CCCC[C@H](NC(C)=O)C(=O)N[C@H]1CC(=O)NCCCC[C@@H](C(=O)N[C@@H](C(=O)N2CCC[C@@H]2C(N)=O)C(C)C)NC(=O)[C@H](Cc2c[nH]c3ccccc23)NC(=O)[C@H](CCCNC(=N)N)NC(=O)[C@@H](Cc2ccc3ccccc3c2)NC(=O)[C@H](Cc2c[nH]cn2)NC(=O)[C@@H]2CCCN2C1=O [Peptide D1, Ac-Nle-c(Asp-Pro-His-Dnal(2′)-Arg-Trp-Lys)-Dval-Dpro-NH2] (Ac-[Nle]DPH[d2Nal]RWK[dV][dP]-NH2; lactam 2-8)
111 | 0.98 | 113.20 | 117 | 0.80 | 119.03% | < 10 µM and 0.087 µM | < 10 µM and 0.0406 µM | CCCC[C@H](NC(C)=O)C(=O)N[C@H]1CC(=O)NCCCC[C@@H](C(=O)N[C@@H](C(=O)N2CCC[C@@H]2C(N)=O)C(C)C)NC(=O)[C@H](Cc2c[nH]c3ccccc23)NC(=O)[C@H](CCCNC(=N)N)NC(=O)[C@@H](Cc2ccc3ccccc3c2)NC(=O)[C@@H]2C[C@@H](O)CN2C1=O [Peptide D3, Ac-Nle-c(Asp-Hyp-Dnal(2′)-Arg-Trp-Lys)-Dval-Dpro-NH2] (Ac-[Nle]D[Hyp][d2Nal]RWK[dV][dP]-NH2; lactam 2-7)
50.1 | 0.65 | 2741.58 | 21 | 0.92 | 9354.39% | > 10 µM |  | CCCC[C@H](NC(C)=O)C(=O)N[C@H]1CC(=O)NCCCC[C@@H](C(=O)N[C@@H](C(=O)N2CCC[C@@H]2C(N)=O)C(C)C)NC(=O)[C@@H]2CCCN2C(=O)[C@H](Cc2c[nH]c3ccccc23)NC(=O)[C@H](CCCNC(=N)N)NC(=O)[C@@H](Cc2ccc3ccccc3c2)NC(=O)[C@@H]2C[C@@H](O)CN2C1=O [Peptide D4, Ac-Nle-c(Asp-Hyp-Dnal(2′)-Arg-Trp-Pro-Lys)-Dval-Dpro-NH2] (Ac-[Nle]D[Hyp][d2Nal]RWPK[dV][dP]-NH2; lactam 2-8)
24.6 | 1.04 | 472.61 | 41.5 | 0.67 | 2724.46% | > 10 µM |  | CCCC[C@H](NC(C)=O)C(=O)N[C@H]1CC(=O)NCCCC[C@@H](C(=O)N2CCC[C@@H]2C(=O)N[C@@H](C(N)=O)C(C)C)NC(=O)[C@H](Cc2c[nH]c3ccccc23)NC(=O)[C@H](CCCNC(=N)N)NC(=O)[C@@H](Cc2ccc3ccccc3c2)NC(=O)[C@H](Cc2c[nH]cn2)NC(=O)[C@@H]2CCCN2C1=O [Peptide D5, Ac-Nle-c(Asp-Pro-His-Dnal(2′)-Arg-Trp-Lys)-Dpro-Dval-NH2] (Ac-[Nle]DPH[d2Nal]RWK[dP][dV]-NH2; lactam 2-8)
 | 0.34 | 20.30 |  | 0.69 | 729.66% |  |  | Ac-Leu-c(Asp-Pro-Phe-Phe-Arg-Trp-Lys)-Val-Pro-NH2 (Ac-LDPFFRWKVP-NH2; lactam 2-8; SMILES CC(=O)N[C@@H](CC(C)C)C(=O)N[C@H]1CC(=O)NCCCC[C@@H](C(=O)N[C@H](C(=O)N2CCC[C@H]2C(N)=O)C(C)C)NC(=O)[C@H](Cc2c[nH]c3ccccc23)NC(=O)[C@H](CCCNC(=N)N)NC(=O)[C@H](Cc2ccccc2)NC(=O)[C@H](Cc2ccccc2)NC(=O)[C@@H]2CCCN2C1=O) [Peptide B2]
 | −0.48 | 0.42 |  | 48.53 | −2.85% |  |  | Ac-Leu-c(Asp-Pro-Trp-Arg-Trp-Lys)-Val-Pro-NH2 (Ac-LDPWRWKVP-NH2; lactam 2-7; SMILES CC(=O)N[C@@H](CC(C)C)C(=O)N[C@H]1CC(=O)NCCCC[C@@H](C(=O)N[C@H](C(=O)N2CCC[C@H]2C(N)=O)C(C)C)NC(=O)[C@H](Cc2c[nH]c3ccccc23)NC(=O)[C@H](CCCNC(=N)N)NC(=O)[C@H](Cc2c[nH]c3ccccc23)NC(=O)[C@@H]2CCCN2C1=O) [Peptide C2]
 | 0.84 | 177.39 |  | 1.55 | 18.76% |  |  | Ac-Nle-c(Asp-His-Dnal(2′)-Arg-Trp-Pro-Lys)-Dval-Dpro-NH2 (Ac-[Nle]DH[d2Nal]RWPK[dV][dP]-NH2; lactam 2-8; SMILES CCCC[C@H](NC(C)=O)C(=O)N[C@H]1CC(=O)NCCCC[C@@H](C(=O)N[C@@H](C(=O)N2CCC[C@@H]2C(N)=O)C(C)C)NC(=O)[C@@H]2CCCN2C(=O)[C@H](Cc2c[nH]c3ccccc23)NC(=O)[C@H](CCCNC(=N)N)NC(=O)[C@@H](Cc2ccc3ccccc3c2)NC(=O)[C@H](Cc2c[nH]cn2)NC1=O) [Peptide D2]

Further lines, the molecule ahead of its results:

Molecule | Emax (human MC3R) [%] | Hill Coefficient (human MC3R) | Top (%) (human MC3R) | Emax (human MC4R) [%] | Hill Coefficient (human MC4R) | Top (%) (human MC4R) | IC50 (human MC3R) | IC50 (human MC4R)
CCCC[C@@H]1NC(=O)[C@@H](NC(C)=O)CSSC[C@@H](C(N)=O)NC(=O)CNC(=O)[C@H](Cc2c[nH]c3ccccc23)NC(=O)[C@H](CCCNC(=N)N)NC(=O)[C@@H](Cc2ccc3ccccc3c2)NC(=O)[C@H](Cc2c[nH]cn2)NC(=O)[C@H](CCCNC(=N)N)NC1=O [HS024(TFA), reference compound] (Ac-C[Nle]RH[d2Nal]RWGC-NH2; disulfide 1-9 (inferred); N-terminus and C-terminus assumed) | 102 | 0.93 | 117.07 | 104 | 0.61 | 113.93% |  | 
CCCC[C@H](NC(C)=O)C(=O)N[C@@H](CC(=O)O)C(=O)N1CCC[C@H]1C(=O)N[C@H](Cc1ccc2ccccc2c1)C(=O)N[C@@H](CCCNC(=N)N)C(=O)N[C@@H](Cc1c[nH]c2ccccc12)C(=O)N[C@@H](CCCCN)C(=O)N[C@@H](C(=O)N1CCC[C@@H]1C(N)=O)C(C)C [Peptide A1, Ac-Nle-Asp-Pro-Dnal(2′)-Arg-Trp-Lys-Dval-Dpro-NH2] (Ac-[Nle]DP[d2Nal]RWK[dV][dP]-NH2) | 84.4 | 0.55 | 1002.64 |  | 0.43 and 0.32 | 1195.94% and 652.03% | < 10 µM | < 10 µM
Ac-Nle-Pro-Dnal(2′)-Arg-Trp-Dval-Dpro-NH2 (Ac-[Nle]P[d2Nal]RW[dV][dP]-NH2; SMILES CCCC[C@H](NC(C)=O)C(=O)N1CCC[C@H]1C(=O)N[C@H](Cc1ccc2ccccc2c1)C(=O)N[C@@H](CCCNC(=N)N)C(=O)N[C@@H](Cc1c[nH]c2ccccc12)C(=O)N[C@@H](C(=O)N1CCC[C@@H]1C(N)=O)C(C)C) [Peptide A2] |  | 0.82 | 9.73 |  |  |  |  | 
